Laboratory results from PubChem BioAssay (NCI).
Values joined by “and” are separate entries in the source; they are usually repeats but may differ in a detail not shown here. Equal entries are not always repeated.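 Values below derive from 48-hour exposures of cells grown in 96-well plates, with endpoints linearly interpolated between the two concentrations bracketing the appropriate inhibition level. GI50 = concentration required for 50% inhibition of growth. TGI denotes the concentration required for complete inhibition of growth.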

How the values were obtained:
Assay in all cases: NCI anticancer screen, dose series, 48 h
BT-549 breast = system: BT-549 breast
HCC-2998 colon = system: HCC-2998 colon
DU-145 prostate = system: DU-145 prostate
A498 renal = system: A498 renal
TK-10 renal = system: TK-10 renal
NCI-H226 lung = system: NCI-H226 lung
RPMI-8226 leukemia = system: RPMI-8226 leukemia
NCI-H522 lung = system: NCI-H522 lung
UO-31 renal = system: UO-31 renal
OVCAR-4 ovarian = system: OVCAR-4 ovarian

SMILES	TGI (BT-549 breast)	TGI (HCC-2998 colon)	TGI (DU-145 prostate)	TGI (A498 renal)	TGI (TK-10 renal)	TGI (NCI-H226 lung)	TGI (RPMI-8226 leukemia)	TGI (NCI-H522 lung)	TGI (UO-31 renal)	TGI (OVCAR-4 ovarian)	GI50 (BT-549 breast)	GI50 (HCC-2998 colon)	GI50 (DU-145 prostate)	GI50 (A498 renal)	GI50 (TK-10 renal)	GI50 (NCI-H226 lung)	GI50 (RPMI-8226 leukemia)	GI50 (NCI-H522 lung)	GI50 (UO-31 renal)	GI50 (OVCAR-4 ovarian)
Nc1[nH]c(=O)nc2c1ncn2C1OC(CO)C(O)C1O (configuration not stated)	> 100 µM	88.9 µM	66.3 µM	> 100 µM	> 100 µM	> 100 µM	> 100 µM	> 100 µM	> 100 µM	> 100 µM										
CCC1(c2ccc(N3C(=O)c4cccc5cc([N+](=O)[O-])cc(c45)C3=O)cc2)CCC(=O)NC1=O (configuration not stated)	38.6 µM	> 88.6 µM	> 69.2 µM	97.8 µM	> 79.1 µM	29 µM	> 100 µM	35.1 µM	27.7 µM	42.4 µM										
COc1ccc(N2C(=O)C3c4[nH]c5c(C)cccc5c4C4CCC(C(C)C)CC4C3C2=O)cc1 (configuration not stated)	56 µM	28.8 µM	31.2 µM	32.8 µM	76.8 µM	36.1 µM	> 100 µM	27.2 µM	31.4 µM	42.3 µM										
CCOC(=O)NC(=S)N(CC(=O)c1cc(OC)c(OC)c(OC)c1)c1ccc(Cl)cc1	> 100 µM	> 100 µM	> 100 µM	> 100 µM	> 100 µM	> 100 µM	> 100 µM	> 100 µM	> 100 µM	> 100 µM	41.6 µM	33.4 µM	79.1 µM	90.1 µM	36.9 µM	> 100 µM	30.2 µM	27.9 µM	48.9 µM	60.6 µM
NC(=O)[C@H](Cc1ccc(O)cc1)Nc1c(O)c2c(c(O)c1Cl)C(=O)C=CC2=O	5.26 µM	> 3.16 µM	> 10 µM	> 10 µM	> 6.51 µM	> 10 µM	7 µM	4.01 µM	> 6.36 µM	3.41 µM										
Cc1nc2c(Br)cc(Br)cc2c(=O)n1-c1ccccc1NC1OC(CO)C(O)C(O)C1O (configuration not stated)	> 100 µM	> 100 µM	> 100 µM	> 100 µM	> 100 µM	> 100 µM	> 100 µM	> 100 µM	> 100 µM	> 100 µM										
O=CCCCCCOCc1ccccc1	> 100 µM	> 100 µM	> 100 µM	> 100 µM	> 100 µM	> 100 µM	> 56.8 µM	> 100 µM	> 100 µM	> 100 µM										
Clc1ccc2c(NCCCCCCNc3ccnc4cc(Cl)ccc34)ccnc2c1	27.5 µM	3.32 µM	14.1 µM	42.3 µM	18.2 µM	25.3 µM	6.53 µM	3.19 µM	10.6 µM	5.93 µM										
C[C@]12CC[C@H]3[C@@H](CC=C4C[C@@H](N5CCCC5)CC[C@@]43C)[C@@H]1C[C@H](N1CCCCC1)[C@@H]2O	> 100 µM	> 100 µM	> 100 µM	> 100 µM	> 100 µM	> 100 µM	85.7 µM	> 100 µM	> 100 µM	> 100 µM										
COc1cc(CCNC2=CC(=O)c3nc[nH]c3C2=O)ccc1O	42 µM	43 µM	34.6 µM	71 µM	87.5 µM	86.8 µM	68.7 µM	62.3 µM	> 100 µM	29 µM										
C=C(NC(=O)C(=C)NC(=O)c1ccc2c(n1)-c1coc(n1)C(=C)NC(=O)C(=C)NC(=O)c1nc(oc1C)C(=C)NC(=O)C(C(C)(C)O)NC(=O)C(=C)NC(=O)c1coc(n1)/C(=C/C)NC(=O)[C@H]([C@@H](C)O)NC(=O)c1csc-2n1)C(N)=O (some centres not stated)	> 87.5 µM	> 87.5 µM	> 87.5 µM	> 87.5 µM	> 87.5 µM	> 87.5 µM	> 87.5 µM	> 87.5 µM	> 87.5 µM	> 87.5 µM										
COc1cc2c(/C=C3/C(=O)Nc4ccccc43)c(Cl)n(Cc3ccc(Cl)cc3)c2cc1C	1.92 µM	0.432 µM	1.07 µM	3.4 µM	7.67 µM	1.79 µM	0.925 µM	2.06 µM	17.6 µM	18.6 µM										
COc1cccc2c1C(=O)c1c(O)c3c(c(O)c1C2=O)C[C@@](O)(C(C)=O)CC3OC1CC(OC2CC(N)C(O)C(C)O2)C(O)C(C)O1 (some centres not stated)	> 100 µM	> 100 µM	> 100 µM	> 100 µM	> 100 µM	> 100 µM	> 74.5 µM	> 100 µM	> 100 µM	> 100 µM										
Clc1ccc2c(c1)N(CCCN1CCCC13CCCCC3)c1ccccc1S2	32.5 µM	8.64 µM	34.2 µM	33.2 µM	29.7 µM	> 86.5 µM	11.3 µM	25.1 µM	22.4 µM	41.7 µM										
CC(=O)NC1C(OCc2ccccc2)OC(CO)C(O)C1OC(C)C(=O)N[C@@H](C)C(=O)N[C@H](CCC(=O)NCCNCCNc1c2ccccc2nc2cccc([N+](=O)[O-])c12)C(N)=O (some centres not stated)	0.221 µM	0.072 µM	0.231 µM	0.32 µM	3.54 µM	0.716 µM	0.381 µM	0.0665 µM	0.607 µM	0.0817 µM										
CC(C)(CO[C@H]1C[C@H]2CC[C@@]1(C)C2(C)C)[N+](=O)[O-]	45.5 µM	5.19 µM	49.2 µM	51.8 µM	34 µM	36.1 µM	38.7 µM	40.5 µM	25.8 µM	76 µM										
COC(=O)C1=C(CCCCO[Si](C)(C)C(C)(C)C)NC(=O)N2[C@H](CCOCc3ccccc3)CC[C@@H]12	> 100 µM	> 100 µM	> 100 µM	> 100 µM	> 100 µM	> 100 µM	> 100 µM	> 100 µM	> 100 µM	> 100 µM										

SMILES	TGI (BT-549 breast)	TGI (HCC-2998 colon)	TGI (DU-145 prostate)	TGI (A498 renal)	TGI (TK-10 renal)	TGI (NCI-H226 lung)	TGI (RPMI-8226 leukemia)	TGI (NCI-H522 lung)	TGI (UO-31 renal)	TGI (OVCAR-4 ovarian)	GI50 (BT-549 breast)	GI50 (HCC-2998 colon)	GI50 (DU-145 prostate)	GI50 (A498 renal)	GI50 (TK-10 renal)	GI50 (NCI-H226 lung)	GI50 (RPMI-8226 leukemia)	GI50 (NCI-H522 lung)	GI50 (UO-31 renal)	GI50 (OVCAR-4 ovarian)
Nc1c(C(=O)c2ccc(Cl)c(Cl)c2)[nH]c(NCc2ccccc2)c1C(=S)Nc1ccccc1	30.5 µM	3.48 µM	32.4 µM	31.5 µM	33.4 µM	31.4 µM	6.03 µM	17.7 µM	21.6 µM	15.8 µM										
C=C1CCC[C@@H](C)C(O)[C@@H]2OC(=O)C(=C)[C@@H]2C[C@@H](OC(C)=O)[C@@]2(C)CC[C@@H]1O2 (some centres not stated)	14.4 µM	14.9 µM	14.3 µM	19.2 µM	14.8 µM	16 µM	> 50 µM	4.93 µM	15.3 µM	36.7 µM										
Cn1c(=O)c2c(nc3[nH]c(=O)c(Br)cn32)n(C)c1=O	> 100 µM	> 100 µM	> 100 µM	> 100 µM	> 100 µM	> 100 µM	> 100 µM	> 100 µM	> 100 µM	> 100 µM										
Cc1c(C)c2c(c(N)c1C#N)C(=O)N(N)C2=O	> 100 µM	> 100 µM	> 100 µM	> 100 µM	> 100 µM	> 100 µM	> 100 µM	> 100 µM	> 100 µM	> 100 µM										
O=C(O)c1c(CC(Cc2ccc3c(c2)CCC3)C(=O)O)ccc2c1CCC2 (configuration not stated)	> 100 µM	> 100 µM	> 100 µM	> 100 µM	> 100 µM	> 100 µM	> 100 µM	> 100 µM	> 100 µM	> 100 µM										
COC(=O)C1OC(O[C@H]2CC[C@]3(C)[C@H]4CC=C5[C@@H]6CC(C)(C)CC[C@]6(C(=O)OC6OCC(O)C(O)C6OC6OC(C)C(OC7OCC(O)C(O)C7O)C(O)C6O)[C@H](O)C[C@@]5(C)[C@]4(C)CC[C@H]3C2(C)C)C(O)C(O)C1O (some centres not stated)	8.86 µM and 21.8 µM	6.71 µM and 3.44 µM	> 57.7 µM and 26.5 µM	3.55 µM and 3.85 µM	21.3 µM and 21.5 µM	13.9 µM and 24.8 µM	> 100 µM and 21.3 µM	6.84 µM and 5.14 µM	3.54 µM and 5.18 µM	6.7 µM and 16.5 µM	3.06 µM and 7.31 µM									0.927 µM and 4.32 µM
COC(=N)C1(C#N)NC(c2ccsc2)C(C#N)(C#N)NC1c1ccsc1 (configuration not stated)	> 100 µM	> 100 µM	> 100 µM	> 100 µM	> 100 µM	> 100 µM	> 100 µM	> 100 µM	> 100 µM	> 100 µM										
CN1CCN(C(=O)c2cn(Cc3cncn3Cc3ccc4c(c3)OCO4)cc2-c2cccc3ccccc23)CC1	> 63 µM	27 µM	> 100 µM	32.1 µM	> 100 µM	> 100 µM	38.7 µM	84.1 µM	> 100 µM	> 100 µM										
CC(=O)CC1(CBr)Nc2ccc([N+](=O)[O-])cc2NC1=O (configuration not stated)	> 100 µM	> 100 µM	> 100 µM	> 100 µM	> 100 µM	> 100 µM	> 100 µM	41.6 µM	> 100 µM	> 100 µM										
N#Cc1c(NC(=S)Nc2ccc(Cl)cc2)sc2c1CCN(N1CCc3c(sc(NC(=S)Nc4ccc(Cl)cc4)c3C#N)C1)C2	> 100 µM	> 100 µM	> 100 µM	36.9 µM	> 100 µM	34.4 µM	> 100 µM	> 100 µM	59.9 µM	> 100 µM										
CC(Nc1ccc(Cl)cc1)c1ccncc1 (configuration not stated)	> 100 µM	> 100 µM	> 100 µM	> 100 µM	> 100 µM	> 100 µM	98.3 µM	> 100 µM	> 100 µM	> 100 µM										
C[n+]1cccc2ccc3cccnc3c21	> 100 µM	> 100 µM	> 100 µM	> 100 µM	> 100 µM	70 µM	> 100 µM	35.1 µM	> 100 µM	> 100 µM										
C=C1c2nc3ccccc3n2C=C(c2ccc(C)cc2)N1c1ccc(OC)cc1	> 100 µM	> 100 µM	> 100 µM	> 100 µM	> 100 µM	> 100 µM	> 58.5 µM	> 77.7 µM	> 100 µM	> 100 µM										
O=C(Nc1ccccc1)N1CCN(C(=O)Nc2ccccc2)C1=S	> 100 µM	> 100 µM	> 100 µM	7.64 µM	> 100 µM	70.5 µM	> 100 µM	> 100 µM	60.7 µM	> 100 µM										
O=P1(N(CCCl)CCCl)Oc2ccc(Cl)cc2C(C(Cl)(Cl)Cl)c2cc(Cl)ccc2O1 (configuration not stated)	> 100 µM	34.3 µM	> 100 µM	> 100 µM	89.5 µM	50.9 µM	> 100 µM	42.9 µM	> 100 µM	> 100 µM										
O=C1c2cc3c(cc2-c2c1c1cc(F)c(F)cc1c(=O)n2CCCn1ccnc1)OCO3	49.5 µM	> 100 µM	> 100 µM	0.116 µM	> 100 µM	0.115 µM	0.673 µM	0.432 µM	0.814 µM	> 100 µM	0.0502 µM	0.195 µM	< 0.01 µM	0.0233 µM	0.25 µM	0.0248 µM	0.0253 µM	0.0124 µM	0.0465 µM	0.27 µM
